Data set [1] relates to Tg-APP mice. The data set can be described thus: Morris water maze, Tg-APP mice. The class given is in vivo, mouse. As to the method:
(§1) All animals were pre-trained (trials) to swim for 90 seconds in a water maze containing a platform submerged in water (invisible) for 4 consecutive days once a day. The pretraining trials “teach” the swimming animals that to “escape”, they must find the hidden platform, and stay on it. The water maze “test” was performed on day 5, (40), when the platform was removed and mice have to swim and find it, thus assessing acquisition and retention. All parameters, including distance travelled to reach platform, speed to get to the platform, latency or time spent on platform, and platform entry were digitally recorded on a computer and analyzed by a blind investigator.
(§2) These experiments were repeated in 1 year old Tg-APP mice and age-matched control (C57BL/6).

In a further data set the test system is caspase-3 activation. As to the method:
Lentiviral constructs encoding LacZ, or Aβ1-42 were stereotaxically injected 1×106 multiplicity of infection (m.o.i) bilaterally into the CA1 hippocampus of 1 year old C57BL/6 or parkin−/−. A Total of […] lentiviral stocks were delivered at a rate of 0.2 μl/min and. All procedures were approved by the Georgetown University Animal Care and Use Committee (GUACUC).
Aβ and p-Tau enzyme-linked immunosorbent assay (ELISA) using specific p-Tau, Aβ1-40 and Aβ1-42 ELISA and caspase-3 activity were performed according to manufacturer's protocol.

Data set [2] has as its system dopamine and homovanillic acid (HVA) levels. The data set can be described thus: Dopamine and HVA ELISA, lentiviral α-Synuclein mice. The conditions noted are these: 10 mg/kg Nilotinib or 5 mg/Kg Bosutinib. The class given is in vivo, mouse. How it is done: Total brain or mesencephalon were collected and fresh 50 μl (1 μg/μl) brain lysates (in STEN buffer) were detected with 50 μl primary antibody (1 h) and 100 μl anti-rabbit secondary antibody (30 min) at RT according to manufacturer's protocols (Abnova, Cat # BOLD01090J00011) for DA and (Eagle Biosciences, Cat # HVA34-K01) for HVA.
For orientation: ELISA stands for enzyme-linked immunosorbent assay.

In another data set the test system is caspase-3 activity. Briefly: Caspase-3 activity, lentiviral α-Synuclein mice. Format: in vivo, mouse. The text has this: To measure caspase-3 activity in the animal models, we used EnzChek® caspase-3 assay kit #1 (Invitrogen) on cortical extracts and Z-DEVD-AMC substrate and the […] was read according to manufacturer's protocol.
In a further data set the test system is transgenic A53T mice. Briefly: Rotarod, A53T mice. The class given is in vivo, mouse. From the text: (§3) Mice were placed on an accelerating rotarod (Columbus Instruments) equipped with individual timers for each mouse. […] All values were converted to % control.
Background: In the rotarod test animals must keep their balance on a rotating rod.

Another data set deals with GFP-tagged TDP-43. Briefly: Distribution of GFP-tagged TDP-43 in M17 cells. The class given is cell-based, human. Particulars: Nilotinib (10 µM) or Bosutinib (5 µM) for additional 24 hrs. Also noted: distribution of GFP-tagged TDP-43 / translocation of GFP-tagged TDP-43 with Nilotinib or Bosutinib: unit of the concentration uncertain. As to the method:
Human neuroblastoma M17 cells (seeding density 2×10^5 cells) were grown in 24 well dishes (Falcon) to 70% confluence in Dulbecco's Modified Eagle Medium (DMEM; Invitrogen) plus 10% (v/v) heat-inactivated fetal bovine serum (Invitrogen), penicillin/streptomycin, and 2 mM L-glutamine at 37° C. and 5% CO2, washed twice in phosphate-buffered saline (PBS). Transient transfection was performed with 3 μg parkin cDNA or 3 μg TDP-43 cDNA, or 3 μg LacZ cDNA. Cells were treated with 5 μM tubacin for 24 hours and DAPI stained in 12 well dishes. Cells were harvested 24 hours after transfection. Transfection was performed in DMEM without serum using Lipofectamine 2000 (Invitrogen) according to the manufacturer's protocol. […] Western blot was performed on NuPAGE 4-12% Bis-Tris gel (Invitrogen). Protein estimation was performed using the microscale BioRad protein assay (BioRad Laboratories Inc, Hercules, Calif., USA).
To ascertain that both parkin and HDAC6 are required for TDP-43 translocation, GFP-tagged TDP-43 was expressed in M17 neuroblastoma cells in the presence of wild type or loss-of-function mutant (T240R) parkin, and treated with 5 μM selective HDAC6 inhibitor for 24 hours.
The following data support these conclusions.

The subject of another data set is parkin. Briefly: Parkin levels in neuroblastoma cells (ELISA, WB). Format: cell-based. As to the method:
(§4) Human neuroblastoma M17 or rat B35 cells were grown in 24 well dishes (Falcon). Transient transfection was performed with 3 μg Aβ1-42 cDNA, or 3 μg LacZ cDNA for 24 hr. […] Cells were harvested 48 hr after transfection.
(§5) Parkin levels were measured via ELISA using parkin−/− brain extracts as a specificity control (FIG. 66A).

The test system of data set [3] is lentiviral Aβ1-42-injected parkin−/− mice. Briefly: Morris water maze, lentiviral Aβ1-42 parkin−/− mice. Format: in vivo, mouse. As to the method: as §1
The Morris water maze test was performed after 4 days of training trials in which the platform was placed in the SE corner and mice were initially placed in the NW corner of the pool.

For data set [4], the system named is parkin and molecular markers of autophagy. Briefly: Parkin and autophagy markers (WB, ELISA), lentiviral Aβ1-42 wild type mice. Format: in vivo, mouse.
The test system of data set [5] is Tg-APP mice. Briefly: Novel object recognition, Tg-APP mice. Format: in vivo, mouse. The conditions noted are these: Tg-APP+Nilotinib. As to the method:
Mice were placed individually in a 22×32×30 cm testing chamber for a 5 min habituation interval and returned to their home cages. Thirty minutes later mice were placed in the testing chamber for 10 min with two identical objects (acquisition session), then returned to their home cages and […] placed back in the testing chamber in the presence with one of the original objects and one novel object of the same size but of a different color and shape (recognition session). Sessions were video recorded. Time spent exploring the objects were scored by blind observer. The recognition index was calculated as (time exploring one of the objects/time exploring both objects)×100 for acquisition session, and (time exploring new object/time exploring both familiar and novel objects)×100 for the recognition session. Statistical calculations to estimate differences between sessions were performed with a pairwise t-test.
as §2

Data set [6] relates to mice injected with lentiviral α-synuclein into the substantia nigra. The data set can be described thus: Rotarod, lentiviral α-Synuclein mice. Format: in vivo, mouse.
Description: as §3

The test system of data set [7] is human M17 neuroblastoma cells. The data set can be described thus: MTT cell viability, M17 cells transfected with Aβ1-42 or LacZ. Format: cell-based. Particulars: Nilotinib 24 hr. How it is done: as §4, §5
Where [8] appears, read: wild type lentiviral Aβ1-42 mice, Nilotinib vs DMSO.

We go through one compound from patent US10709704B2, “Treating neural disease with tyrosine kinase inhibitors” (GEORGETOWN UNIVERSITY, priority 2012, dated 2020).

With `Cc1cn(-c2cc(NC(=O)c3ccc(C)c(Nc4nccc(-c5cccnc5)n4)c3)cc(C(F)(F)F)c2)cn1` [Nilotinib], the “time spent in SE” value in the data set with Tg-APP mice [1] (1 year old Tg-APP mice, 10 mg/kg daily for 3 weeks) is given as “reversed time spent in SE back to control level”. Further, the “distance traveled above control levels” value in the data set on Tg-APP mice [1] (Nilotinib treated Tg-APP mice) is given as 30%. In addition, the “entries into SE (platform entry) higher than control” value in the data set on Tg-APP mice [1] (Tg-APP+Nilotinib) came out at 30%. For the same compound, the “increase in caspase-3 activation” value in the data set with caspase-3 activation (lentiviral Aβ1-42 parkin−/− mice with Nilotinib (without 180%)) was determined as 165%. In addition, the “caspase-3 activation above control” value with caspase-3 activation (lentiviral Aβ1-42 wild type mice, 10 mg/kg daily 3 weeks (DMSO 165%)) is 45 % above control. Also, in data set [2], the “α-synuclein induced loss of dopamine and HVA levels (ELISA)” value is “reversed these effects”. For the same compound, in the data set on caspase-3 activity (LacZ injected mice, daily IP 10 mg/kg), the “caspase-3 activity, Nilotinib vs DMSO” value is on record as “did not result in any difference”. Also, the caspase-3 activity in the data set with caspase-3 activity (lentiviral α-Synuclein mice, daily IP 10 mg/kg Nilotinib 3 weeks) is recorded as 140 % of LacZ levels. For the same compound, in the data set with transgenic A53T mice (6-8 months old A53T mice, Nilotinib), the “increase in rotarod motor performance above control levels” value came to 45%. The “motor performance (rotarod)” value with transgenic A53T mice (A53T mice, 10 mg/kg Nilotinib or 5 mg/Kg Bosutinib once daily for 3 weeks) is “increased”. Moreover, the “distribution of GFP-tagged TDP-43” value with GFP-tagged TDP-43 was “translocation of GFP-tagged TDP-43 from nucleus (A) into the cytosol”. For the same compound, the “increase in parkin (ELISA), non-significant” value with parkin (10 μM Nilotinib) is given as 17%. In addition, the “increase in parkin (ELISA)” value in the data set with parkin (Aβ1-42 + Nilotinib) is reported as 24%. Also, the “increase in Nilotinib-induced parkin on blocking beclin-1 with shRNA (WB)” value in the data set on parkin (shRNA beclin-1 + Nilotinib) is recorded as 28%. Moreover, the “decrease in distance travelled compared to control and wild type” value in data set [3] (Aβ1-42 parkin−/− mice with Nilotinib (first of '±Nilotinib ... respectively')) was determined as 80%. Further, in data set [3] (Aβ1-42 parkin−/− mice with and without Nilotinib), the “time in NW quadrant” value is on record as “remained significantly more in the NW quadrant”. In addition, in data set [4] (setting [8]), the LC3-II entry is given as “disappearance” and the “decrease in LC3-B” value stood at 38%. In addition, the “parkin level (ELISA)” value in [4] (wild type mice and lentiviral Aβ1-42 ± Nilotinib) is on record as “increases parkin level”. Moreover, in the data set on Tg-APP mice [5], the “better performance at finding new objects than DMSO mice” value is listed as 31%. In data set [6] (lentiviral α-Synuclein mice + Nilotinib (DMSO 39%)), the rotarod motor performance is on record as 86 % of LacZ level. In addition, in data set [6] (lentiviral α-synuclein mice, 10 mg/kg Nilotinib or 5 mg/Kg Bosutinib), the “motor performance (rotarod)” value is listed as “improved motor performance”. The “cell viability (MTT) after Aβ1-42 induced cell death” value in data set [7] (Aβ1-42 expressing cells) was 83 % of control level. In data set [7] (LacZ cells), the “cell death (by MTT)” value was “No cell death”.
